For five compounds, IC50 results are on record in patent US6004960A, “Pyridazinones as inhibitors of cyclooxygenase-2” (Merck Frosst Canada, Inc., priority 1998, dated 1999).

The structures appear in SMILES notation.

Assay [1] addresses T1, COX-1 (Homo sapiens, UniProt P23219). Description: Human whole blood assay, COX-1 (clotting-induced TxB2 production). The conditions noted are these: clotting-induced TxB2, 1 hour at 37° C, read-out: COX-1 (IC50 μM) HWB. Further details: platelets in whole blood contain a large amount of the COX-1 enzyme; from tissue; host or cells: fresh human whole blood (platelets), allowed to clot. The format is cell-based. On the procedure: Human whole blood provides a protein and cell-rich milieu appropriate for the study of biochemical efficacy of anti-inflammatory compounds such as selective COX-2 inhibitors. […] This is consistent with the observation that COX-2 inhibitors have no effect on PGE2 production in normal blood. These inhibitors are active only after incubation of human whole blood with LPS, which induces COX-2. This assay can be used to evaluate the inhibitory effect of selective COX-2 inhibitors on PGE2 production. As well, platelets in whole blood contain a large amount of the COX-1 enzyme. Immediately following blood clotting, platelets are activated through a thrombin-mediated mechanism. This reaction results in the production of thromboxane B2 (TxB2) via activation of COX-1. Thus, the effect of test compounds on TxB2 levels following blood clotting can be examined and used as an index for COX-1 activity. Therefore, the degree of selectivity by the test compound can be determined by measuring the levels of PGE2 after LPS induction (COX-2) and […] following blood clotting (COX-1) in the same assay.
B. COX-1 (Clotting-induced TxB2 production)
Fresh blood is collected into vacutainers containing no anticoagulants. […] The tubes are vortexed and incubated at 37° C. for 1 hour to allow blood to clot. At the end of incubation, serum is obtained by centrifugation (12,000×g for 5 min.). A 100 μL aliquot of serum is mixed with 400 μL of methanol for protein precipitation. The supernatant is obtained and is assayed for T×B2 using a enzyme immunoassay kit (Cayman, #519031) according to the manufacturer's instruction.

Assay [2] addresses T1, COX-1. Briefly: Assay of COX-1 activity from U937 cell microsomes. The format is biochemical. The arrangement: Assay of COX-1 Activity from U937 cell microsomes; endogenous in cells; host or cells: U937 cells, 100,000×g microsomal pellet. The conditions noted are these: PGE2, read-out: COX-1 (IC50 μM) U-937. On the procedure:
Assay of COX-1 Activity from U937 cell microsomes
U 937 cells are pelleted by centrifugation at 500×g for 5 min and washed once with phosphate-buffered saline and repelleted. […] The cell suspension is sonicated 4 times for 10 sec and is centrifuged at 10,000×g for 10 min at 4° C. The supernatant is centrifuged at 100,000×g for 1 hr at 4° C. The 100,000×g microsomal pellet is resuspended in 0.1 M Tris-HCl, pH 7.4, 10 mM EDTA to approximately 7 mg protein/ml and stored at -80° C.
Microsomal preparations are thawed immediately prior to use, subjected to a brief sonication, and then diluted to a protein concentration of 125 μg/ml in 0.1 M Tris-HCl buffer, pH 7.4 containing 10 mM EDTA, 0.5 mM phenol, 1 mM reduced glutathione and 1 μM hematin. Assays are performed in duplicate in a final volume of 250 pl. Initially, 5 µl of DMSO vehicle or drug in DMSO are added to 20 μl of 0.1 M Tris-HCl buffer, pH 7.4 containing 10 mM EDTA in wells of a 96-deepwell polypropylene titre plate. 200 μl of the microsomal preparation are then added and pre-incubated for 15 min at room temperature before addition of 25 μl of […] in 0.1 M Tris-HCl and 10 mM EDTA, pH 7.4. Samples are incubated for 40 min at room temperature and the reaction is stopped by the addition of 25 pl of 1 N HCl. Samples are neutralized with 25 μl of 1 N NaOH prior to quantitation of PGE2 content by radioimmunoassay (Dupont-NEN or Amersham assay kits). Cyclooxygenase activity is defined as the difference between PGE2 levels in samples incubated in the presence of arachidonic acid and ethanol vehicle.
(§1) In the assay, inhibition is determined by measuring the amount of prostaglandin E2 (PGE2) synthesized in the presence of arachidonic acid, cyclooxygenase-I or cyclooxygenase-2 and a putative inhibitor.

Assay [3] deals with T2, COX-2 (Homo sapiens, UniProt P35354).
T2 sequence (P35354 18-604): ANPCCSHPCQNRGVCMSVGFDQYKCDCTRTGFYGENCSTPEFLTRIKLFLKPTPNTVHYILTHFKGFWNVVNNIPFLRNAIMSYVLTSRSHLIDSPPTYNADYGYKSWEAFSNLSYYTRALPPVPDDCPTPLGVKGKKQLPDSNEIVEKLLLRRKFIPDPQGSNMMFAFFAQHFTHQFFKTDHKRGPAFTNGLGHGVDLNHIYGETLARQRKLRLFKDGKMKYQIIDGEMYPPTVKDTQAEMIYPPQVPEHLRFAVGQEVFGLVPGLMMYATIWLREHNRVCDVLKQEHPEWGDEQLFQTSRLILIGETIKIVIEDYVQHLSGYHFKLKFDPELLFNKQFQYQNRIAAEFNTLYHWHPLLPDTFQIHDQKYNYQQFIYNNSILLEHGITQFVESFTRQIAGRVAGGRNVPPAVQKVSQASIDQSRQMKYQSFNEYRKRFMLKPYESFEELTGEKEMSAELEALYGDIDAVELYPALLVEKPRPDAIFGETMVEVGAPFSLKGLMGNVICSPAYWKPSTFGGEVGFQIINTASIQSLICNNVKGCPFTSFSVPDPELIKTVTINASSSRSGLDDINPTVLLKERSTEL
Description: Whole cell assay for COX-2 using CHO transfected cell line (CHO [hCOX-2]), PGE2. The conditions noted are these: CHO [hCOX-2] cells, 10 μM AA. The format is cell-based. The arrangement: expressed in transfected cells; host or cells: CHO (Chinese hamster ovary), stably transfected with pCDNAIII vector; CHO [hCOX-2]. The method, then: Chinese hamster ovary (CHO) cell lines which have been stably transfected with an eukaryotic expression vector pCDNAIII containing either the human COX-1 or COX-2 cDNA's are used for the assay. These cell lines are referred to as CHO [hCOX-1] and CHO [hCOX-2], respectively. […] Drugs to be tested are dissolved in DMSO to 66.7-fold the highest test drug concentration. […] Cells (0.3×10^6 cells in 200 p) are preincubated with 3 AIl of the test drug or DMSO vehicle for 15 min at 37° C. […] Cells are then challenged in the presence or absence of drug with the AA/HBSS solution to yield a final concentration of 0.5 μM AA in the CHOhCOX-1] assay and a final concentration of 10 μM AA in the CHO [hCOX-2] assay. […] The samples are centrifuged at 300×g at 4° C. for 10 min, and an aliquot of the clarified supernatant is appropriately diluted for the determination of PGE2 levels using an enzyme-liked immunoassay for PGE2 (Correlate PGE2 enzyme immunoassay kit, Assay Designs, Inc.). Cyclooxygenase activity in the absence of test compounds is determined as the difference in PGE2 levels of cells challenged with arachidonic acid versus the PGE2 levels in cells mock-challenged with ethanol vehicle. Inhibition of PGE2 synthesis by test compounds is calculated as a percentage of the activity in the presence of drug versus the activity in the positive control samples.
as §1

Assay [4] concerns the target T2, COX-2. Description: Human whole blood assay, COX-2 (LPS-induced PGE2 production). In kind it is cell-based. The arrangement: incubation of human whole blood with LPS, which induces COX-2; from tissue; host or cells: fresh human whole blood (volunteers), incubated with LPS. The conditions noted are these: LPS-induced PGE2, 24 hours at 37° C, read-out: COX-2 (IC50 μM) HWB. From the text:
As well, platelets in whole blood contain a large amount of the COX-1 enzyme. Immediately following blood clotting, platelets are activated through a thrombin-mediated mechanism. This reaction results in the production of thromboxane B2 (TxB2) via activation of COX-1. Thus, the effect of test compounds on TxB2 levels following blood clotting can be examined and used as an index for COX-1 activity. Therefore, the degree of selectivity by the test compound can be determined by measuring the levels of PGE2 after LPS induction (COX-2) and […] following blood clotting (COX-1) in the same assay.
A. COX-2 (LPS-induced PGE2 production)
Fresh blood is collected in heparinized tubes by venipuncture from both male and female volunteers. The subjects have no apparent inflammatory conditions and have not taken any NSAIDs for at least 7 days prior to blood collection. Plasma is immediately obtained from a 2mL blood aliquot to use as blank (basal levels of PGE2). The remaining blood is incubated with LPS (100 μg/ml final concentration, Sigma Chem, #L-2630 from E. coli; diluted in 0.1% BSA (Phosphate buffered saline) for 5 minutes at room temperature. Five hundred μL aliquots of blood are incubated with either 2μL of vehicle (DMSO) or 2 μL of a test compound at final concentrations varying from 10nM to 30 μM for 24 hours at 37° C. At the end of the incubation, the blood is centrifuged at 12,000×g for 5 minutes to obtain plasma. A 100 μL aliquot of plasma is mixed with 400 μL of methanol for protein precipitation. The supernatant is obtained and is assayed for PGE2 using a radioimmunoassay kit (Amersham, RPA#530) after conversion of PGE2 to its methyl oximate derivative according to the manufacturer's procedure. […]

T1 sequence (P23219 24-599): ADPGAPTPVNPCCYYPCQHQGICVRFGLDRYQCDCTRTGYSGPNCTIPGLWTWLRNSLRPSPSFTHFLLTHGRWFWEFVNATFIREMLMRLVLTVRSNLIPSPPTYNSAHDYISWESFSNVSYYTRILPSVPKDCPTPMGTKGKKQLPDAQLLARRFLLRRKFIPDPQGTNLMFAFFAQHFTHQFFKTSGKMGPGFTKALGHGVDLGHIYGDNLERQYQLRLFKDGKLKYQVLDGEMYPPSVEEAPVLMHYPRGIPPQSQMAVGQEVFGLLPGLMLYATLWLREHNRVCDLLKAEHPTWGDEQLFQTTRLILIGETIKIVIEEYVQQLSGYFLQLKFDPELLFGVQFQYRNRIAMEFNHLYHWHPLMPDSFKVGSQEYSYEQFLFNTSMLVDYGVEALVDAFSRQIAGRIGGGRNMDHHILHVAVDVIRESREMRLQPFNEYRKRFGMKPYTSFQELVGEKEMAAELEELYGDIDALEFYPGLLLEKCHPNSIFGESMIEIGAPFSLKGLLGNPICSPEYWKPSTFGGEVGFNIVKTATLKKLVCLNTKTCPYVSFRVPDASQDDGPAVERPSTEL

Take `CC(C)Oc1c(-c2ccc(S(C)(=O)=O)cc2)cnn(Cc2ccccc2)c1=O` [Example 21, 2-Benzyl-4-(2-propoxy)-5-(4-methylsulfonyl)phenyl-2H-pyridazin-3-one]: the IC50 (in general, the concentration needed to halve the response being measured) on COX-1 [1] was over 100 µM.
As for `CS(=O)(=O)c1ccc(-c2cnn(Cc3ccccc3)c(=O)c2Oc2ccc(F)cc2)cc1` [Example 22, 2-Benzyl-4-(4-fluorophenoxy)-5-(4-methylsulfonyl)phenyl-2H-pyridazin-3-one], the 50% inhibitory concentration (IC50) was 0.3 to 1 µM on COX-1 [2] and 9 µM on COX-1 [1].
Consider `CS(=O)(=O)c1ccc(-c2cnn(CCCC(F)(F)F)c(=O)c2-c2ccc(F)cc2)cc1` [Example 29, 4-(4-Fluorophenyl)-5-(4-methylsulfonyl)phenyl-2-(4,4,4-trifluorobutyl)-2H-pyridazin-3-one], for which the IC50 on COX-1 [2] is over 10 µM; on COX-2 [3] it was 0.18 µM; on COX-2 [4], 1.3 µM.
Taken in the same sequence, the figures for `CC(C)Cn1ncc(-c2ccc(S(C)(=O)=O)cc2)c(-c2ccc(F)cc2)c1=O` [Example 31, 4-(4-Fluorophenyl)-2-(2-methylpropyl)-5-(4-methylsulfonyl)phenyl-2H-pyridazin-3-one] were over 10 µM, 0.18 µM and 3.8 µM.
Take `CS(=O)(=O)c1ccc(-c2cnn(CC3CCC3)c(=O)c2-c2ccc(F)cc2)cc1` [Example 32, 2-Cyclobutylmethyl-4-(4-fluorophenyl)-5-(4-methylsulfonyl)phenyl-2H-pyridazin-3-one]: the IC50 on COX-1 [2] was about 10 µM; on COX-2 [3], 0.029 µM; at COX-2 [4], 0.56 µM.
